# Measurements taken from patent US20240382498A1, “NOVEL INHIBITOR OF HYPE-MEDIATED AMPYLATION” (Purdue Research Foundation, priority 2023, published 2024).
# Columns and labels:
# HeLa cells = test: MTT cell viability assay, HeLa; format: cell-based, human; conditions: 48 hr
# Procedure: (§1) The cell lines were procured from ATCC (American Type Culture Collection) and cultured in DMEM (Dulbecco's Modified Eagle Medium) supplemented with 10% FBS (fetal bovine serum) without antibiotics. Cells were grown and maintained in a humidified incubator at 37° C. with 5% CO2. For the MTT assay, cells were trypsinized and harvested at ˜80-90% confluency and seeded in 96 well plates at a density of 1×10^4 cells per well. The seeded cells were incubated overnight and treated with 1 μM, 3 μM, 5 μM, 7 μM, 10 μM, 20 μM, 30 μM or 50 μM (final concentration) of DMSO-dissolved compound for 48 hr. To rule out vehicle induced toxicity, only 0.5% of final DMSO concentration was added to the cells. Post-incubation, the compound treatment was removed and replaced with 0.5 mg/ml (final concentration) of freshly prepared MTT solution. After incubating for 3.5 hr at 37° C., 5% CO2 humidified incubator, MTT was carefully removed without aspirating the formazan crystals and replaced with equivalent volume of DMSO to dissolve the formazan crystals. The plates were then read using a multi-plate reader at 570 nm. The absorbance was recorded and % viability was calculated according to the following equation:
# (§2) [formula] • where, Abt is the absorbance of compound treated cells and Abc is the absorbance of control cells.
# HEK 293 cells = test: MTT cell viability assay, HEK 293; format: cell-based, human; conditions: HEK 293, 10 μM, 48 hr
# Procedure: as §1, §2
compound,measurement,setting,value
c1cn(-c2ccc(-c3nnc(-c4ccoc4)o3)cn2)cn1 [Compound I2.10],cell viability,"HeLa cells; HeLa (so in the source), 50 μM",~60%
same,cell viability,"HeLa cells; HeLa, up to 50 μM",100%
same,cell viability,HEK 293 cells,~80%
